# Results from EPA's ToxValDB 9.5.
# Assays:
# Rattus norvegicus = details: oral, gavage
# Mus musculus = details: oral
# [1] = developmental, duration: 15 days, F, Body Weight: 12% decrease in maternal body weight + Developmental: 12-13% decrease in fetal body weights
# [2] = developmental, duration: 15 days, F, Body Weight: 31% decrease in maternal body weight gain + Developmental: Decreases in fetal body weight (9%) and delays in hindlimb …
# [3] = reproduction developmental, duration: 70 days, Sprague-Dawley, Body Weight: Medullary/papillary tubular and ductal hyperplasia in P0 and F1
# [4] = subchronic, duration: 90 days, M, Sprague-Dawley, Hematological: Decreased hemoglobin (4.9%) and hematocrit (5.2%)
# [5] = subchronic, duration: 90 days, Sprague-Dawley, Gastrointestinal: Necrosis of individual squamous cells in forestomach and hyperplasia and hyperkeratosis of limiting ridge + Renal: …
# [6] = developmental, duration: 20 days, gavage, F, ICR, Developmental: Decreases in pup body weight / delays in eye opening, vaginal opening, and first estrous / decreases in ovarian follicles…
# [7] = chronic, duration: 93 days, F, Endocrine: Thyroid follicular epithelial hypertrophy
# [8] = chronic, duration: 93 days, M/F, Hematological: Decreased RBC, hemoglobin, and hematocrit / increased reticulocytes / erythroid hypertrophy in bone marrow and …
# [9] = chronic, duration: 93 days, M/F, Respiratory: Degeneration/atrophy of nasal olfactory epithelium at ?100 mg/kg/day and respiratory metaplasia at 500 mg/kg/day
# [10] = chronic, duration: 93 days, M, Body Weight: 19% decrease in body weight gain
# [11] = developmental, duration: 20 days, F, Body Weight: Decreased maternal weight gain (19%) + Developmental: Decreased fetal weight (10%)
# [12] = developmental, duration: 126 days, M/F, Developmental: Decreased pup body weight (17-18%) during lactation period
# [13] = reproduction developmental, duration: 126 days, M, Body Weight: Decreased weight gain (12%) / decreased maternal weight gain during GDs 0-7 and increased maternal weight gain during …
# [14] = subchronic, duration: 44 days, F, Immunotoxicological: Thymic atrophy in 3/9 females
# [15] = subchronic, duration: 44 days, M, Hematological: Decreased hemoglobin levels / increased reticulocytes at 315 mg/kg/day
# [16] = subchronic, duration: 90 days, M/F, Sprague-Dawley, Hematological: Slight decreases in RBC, hemoglobin, and hematocrit and increases in reticulocytes
# [17] = developmental, duration: 13 days, gavage, F, CD1, Developmental: 12.5% decrease in birth weight and delayed eye opening at ?350 mg/kg/day / increased pup mortality (PND 0-3) and decreased …
# [18] = developmental, duration: 13 days, gavage, F, CD1, Developmental: Increase in stillborn pups and 12.5% decrease in birth weight
compound,measurement,setting,value
O=S(=O)(O)C(F)(F)C(F)(F)C(F)(F)C(F)(F)F [Perfluorobutanesulfonic acid],LOAEL,Rattus norvegicus; [1],2000 mg/kg-day
same,NOAEL,Rattus norvegicus; [1],1000 mg/kg-day
same,LOAEL,Rattus norvegicus; [2],1000 mg/kg-day
same,NOAEL,Rattus norvegicus; [2],300 mg/kg-day
same,NOAEL,"Rattus norvegicus; reproduction developmental, duration: 70 days, Sprague-Dawley, Body Weight: Increased liver weight in males at ?300 mg/kg/day",1000 mg/kg-day
same,LOAEL,Rattus norvegicus; [3],300 mg/kg-day
same,NOAEL,Rattus norvegicus; [3],100 mg/kg-day
same,NOAEL,"Rattus norvegicus; short-term, duration: 28 days, Sprague-Dawley, Hepatic: Increased absolute and relative liver weight at 900 mg/kg/day + Immunotoxicological: No histological alterations + Neurological: No…",900 mg/kg-day
same,LOAEL,Rattus norvegicus; [4],200 mg/kg-day
same,NOAEL,Rattus norvegicus; [4],60 mg/kg-day
same,NOAEL,"Rattus norvegicus; subchronic, duration: 90 days, Sprague-Dawley",600 mg/kg-day
same,LOAEL,Rattus norvegicus; [5],600 mg/kg-day
same,NOAEL,Rattus norvegicus; [5],200 mg/kg-day
same,NOAEL,"Mus musculus; developmental, duration: 20 days, gavage, F, ICR",500 mg/kg-day
same,LOAEL,Mus musculus; [6],200 mg/kg-day
same,NOAEL,Mus musculus; [6],50 mg/kg-day
same,NOAEL,"Mus musculus; subchronic, duration: 6 weeks, diet, M, Hepatic: Decreased plasma triglyceride levels",30 mg/kg-day
O=C(O)C(F)(F)C(F)(F)C(F)(F)C(F)(F)C(F)(F)F [Perfluorohexanoic acid],LOAEL,"Rattus norvegicus; acute, duration: 1 days, F, Sprague-Dawley, Death: 1/4 died at […] / 3/3 died at 5,000 mg/kg/day",1750 mg/kg-day
same,LOAEL,"Rattus norvegicus; acute, duration: 1 days, F, Sprague-Dawley, Neurological: Abnormal gait, salivation, ataxia, lethargy",175 mg/kg-day
same,LOAEL,"Rattus norvegicus; chronic, duration: 104 weeks, F, Sprague-Dawley, Death: 36, 43, 33, and 22% survival rate in females at 0, 5, 30, and 200 mg/kg/day, respectivel",200 mg/kg-day
same,LOAEL,"Rattus norvegicus; chronic, duration: 104 weeks, F, Sprague-Dawley, Hematological: 8.1% reduction in mean RBC count and 5.2% reduction in hemoglobin at 51 weeks / 23.6 and 53.6% increase in reticulocyte …",200 mg/kg-day
same,NOAEL,"Rattus norvegicus; chronic, duration: 104 weeks, M, Sprague-Dawley, Hematological: 8.1% reduction in mean RBC count and 5.2% reduction in hemoglobin at 51 weeks / 23.6 and 53.6% increase in reticulocyte …",100 mg/kg-day
same,LOAEL,Rattus norvegicus; [7],500 mg/kg-day
same,NOAEL,Rattus norvegicus; [7],100 mg/kg-day
same,LOAEL,Rattus norvegicus; [8],500 mg/kg-day
same,NOAEL,Rattus norvegicus; [8],100 mg/kg-day
same,NOAEL,"Rattus norvegicus; chronic, duration: 93 days, M/F, Hepatic: Hepatocellular hypertrophy in males at ?100 mg/kg/day and females at 500 mg/kg/day",500 mg/kg-day
same,LOAEL,Rattus norvegicus; [9],100 mg/kg-day
same,NOAEL,Rattus norvegicus; [9],20 mg/kg-day
same,LOAEL,Rattus norvegicus; [10],500 mg/kg-day
same,NOAEL,Rattus norvegicus; [10],200 mg/kg-day
same,LOAEL,"Rattus norvegicus; chronic, duration: 126 days, F",500 mg/kg-day
same,NOAEL,"Rattus norvegicus; chronic, duration: 126 days, F",100 mg/kg-day
same,NOAEL,"Rattus norvegicus; chronic, duration: 126 days, M/F",500 mg/kg-day
same,LOAEL,Rattus norvegicus; [11],500 mg/kg-day
same,NOAEL,Rattus norvegicus; [11],100 mg/kg-day
same,LOAEL,Rattus norvegicus; [12],500 mg/kg-day
same,NOAEL,Rattus norvegicus; [12],100 mg/kg-day
same,NOAEL,"Rattus norvegicus; reproduction developmental, duration: 44 days, M/F, Gastrointestinal: Stomach erosions/ulceration in dying or sacrificed in extremis rats administered 450 mg/kg/day for 4 days + Hepatic: …",315 mg/kg-day
same,LOAEL,Rattus norvegicus; [13],100 mg/kg-day
same,NOAEL,Rattus norvegicus; [13],20 mg/kg-day
same,NOAEL,"Rattus norvegicus; subchronic, duration: 44 days, F",315 mg/kg-day
same,LOAEL,Rattus norvegicus; [14],315 mg/kg-day
same,NOAEL,Rattus norvegicus; [14],150 mg/kg-day
same,NOAEL,"Rattus norvegicus; subchronic, duration: 44 days, M",315 mg/kg-day
same,LOAEL,"Rattus norvegicus; subchronic, duration: 44 days, M/F, Death: 8/30 deaths (includes rats sacrificed in extremis) during first 4 days of exposure",450 mg/kg-day
same,LOAEL,Rattus norvegicus; [15],150 mg/kg-day
same,NOAEL,Rattus norvegicus; [15],50 mg/kg-day
same,LOAEL,Rattus norvegicus; [16],200 mg/kg-day
same,NOAEL,Rattus norvegicus; [16],50 mg/kg-day
same,NOAEL,"Rattus norvegicus; subchronic, duration: 90 days, M/F, Sprague-Dawley, Hepatic: Centrilobular hepatocellular hypertrophy at 200 mg/kg/day",200 mg/kg-day
same,LOAEL,Mus musculus; [17],350 mg/kg-day
same,NOAEL,Mus musculus; [17],100 mg/kg-day
same,LOAEL,Mus musculus; [18],175 mg/kg-day
same,NOAEL,Mus musculus; [18],35 mg/kg-day
